Literature values in patent US20200360403A1, “OPTHALMIC COMPOSITIONS FOR INHIBITING CLOUDING OF THE OCULAR LENS” (priority 2019, published 2020).

What was measured:
aggregated lens protein = settings: all studies by Daszynski et al.
cffl-crystallins = settings: compared to ATP

C[C@H](CCCC(C)(C)O)[C@H]1CC[C@H]2[C@@H]3CC=C4C[C@@H](O)CC[C@]4(C)[C@H]3CC[C@]12C [25-hydroxycholesterol]
anti-cataractogenic activity or binding of aggregated lens protein to dissolve cataracts (aggregated lens protein): failed to provide evidence | binding scores for good predictive binding to the crystallins (cffl-crystallins): failed to reach the acceptable threshold binding scores

CC(C)=CCC[C@@H](C)[C@H]1CC[C@@]2(C)C3=C(CC[C@]12C)[C@@]1(C)CC[C@H](O)C(C)(C)[C@@H]1CC3 [lanosterol]
anti-cataractogenic activity or binding of aggregated lens protein to dissolve cataracts (aggregated lens protein): failed to provide evidence | binding scores for good predictive binding to the crystallins (cffl-crystallins): failed to reach the acceptable threshold binding scores
